Measurements from patent US10391081B2, “FGFR gatekeeper mutant gene and drug targeting same” (CHUGAI SEIYAKU KABUSHIKI KAISHA, priority 2013, dated 2019).

Target: T1, TEL-fused FGFR2 V564F mutant polypeptide (Homo sapiens, UniProt P21802, V564F)
T1 construct: expressed in transfected cells; for A6/A7 grown as subcutaneous tumours in BALB/c nude mice
Assay: In vitro cell proliferation inhibition (WST-8), Ba/F3 strain stably expressing TEL-fused FGFR2 V564F mutant
Assay type: cell-based
Conditions: cultured four days, FIG. 3
Description: A polynucleotide encoding the dimerization domain of wild-type TEL (SEQ ID NO: 33) and a polynucleotide encoding the intracellular domain of wild-type FGFR2 (SEQ ID NO: 1) were fused by a PCR-based site-directed mutagenesis method to produce a polynucleotide (SEQ ID NO: 11) encoding the TEL-fused wild-type FGFR2 (SEQ ID NO: 34). Using the polynucleotide encoding the TEL-fused wild-type FGFR2 as a template, a polynucleotide (SEQ ID NO: 12) encoding the TEL-fused FGFR2 V564F mutant (SEQ ID NO: 35) was prepared by a PCR-based site-directed mutagenesis method.

T1 sequence (P21802 with tags, fused parts or gaps V564F): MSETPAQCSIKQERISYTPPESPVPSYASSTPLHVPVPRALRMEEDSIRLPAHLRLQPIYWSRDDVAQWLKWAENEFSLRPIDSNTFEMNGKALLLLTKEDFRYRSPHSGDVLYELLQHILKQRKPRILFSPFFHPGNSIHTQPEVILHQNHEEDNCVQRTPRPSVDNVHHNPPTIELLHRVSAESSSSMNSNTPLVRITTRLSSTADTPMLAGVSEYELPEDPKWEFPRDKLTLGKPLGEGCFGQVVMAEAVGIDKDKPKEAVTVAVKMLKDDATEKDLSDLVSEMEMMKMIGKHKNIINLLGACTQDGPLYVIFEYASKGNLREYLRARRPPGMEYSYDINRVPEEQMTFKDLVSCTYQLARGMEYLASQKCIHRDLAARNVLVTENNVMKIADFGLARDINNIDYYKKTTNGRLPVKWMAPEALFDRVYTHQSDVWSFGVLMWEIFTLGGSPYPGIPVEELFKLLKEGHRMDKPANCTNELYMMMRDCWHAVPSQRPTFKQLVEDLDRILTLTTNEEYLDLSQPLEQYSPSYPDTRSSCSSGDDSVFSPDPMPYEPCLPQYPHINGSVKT

SMILES	cell proliferation-inhibiting activity compared to the strain stably expressing TEL-fused wild-type FGFR2
CCN1CCN(c2ccc(Nc3cc(N(C)C(=O)Nc4c(Cl)c(OC)cc(OC)c4Cl)ncn3)cc2)CC1 [Compound D, BGJ-398]	greatly weakened
COc1cc2c(Oc3ccc4[nH]c(C)cc4c3F)ncnc2cc1OCCCN1CCCC1 [E, cediranib]	greatly weakened
